According to ChEMBL document CHEMBL4418497, “Compositions and methods relating to inhibiting serine hyrdoxymethyltransferase 2 activity” (2016):

Target: T1, Serine hydroxymethyltransferase, mitochondrial (Homo sapiens, UniProt P34897)
T1 sequence (P34897 whole entry): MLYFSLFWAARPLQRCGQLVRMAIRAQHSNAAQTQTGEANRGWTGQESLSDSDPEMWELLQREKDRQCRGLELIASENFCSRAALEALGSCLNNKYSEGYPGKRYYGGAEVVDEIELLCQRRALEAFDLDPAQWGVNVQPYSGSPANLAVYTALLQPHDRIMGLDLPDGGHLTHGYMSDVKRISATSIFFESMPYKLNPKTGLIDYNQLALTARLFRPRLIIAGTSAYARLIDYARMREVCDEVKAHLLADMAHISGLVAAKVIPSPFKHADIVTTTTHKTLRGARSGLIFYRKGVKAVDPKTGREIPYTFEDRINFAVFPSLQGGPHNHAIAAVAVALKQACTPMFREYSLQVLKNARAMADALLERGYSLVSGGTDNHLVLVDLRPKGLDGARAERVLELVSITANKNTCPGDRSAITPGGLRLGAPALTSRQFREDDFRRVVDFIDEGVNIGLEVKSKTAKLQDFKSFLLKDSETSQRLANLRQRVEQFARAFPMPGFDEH
Assay: Inhibition of His-tagged human recombinant SHMT2 expressed in Escherichia coli BLR(DE3) assessed as reduction in NADPH level using L-serine, THF and NADP+ incubated for 5 mins by SHMT2-MTHFD coupled reaction based fluorescence assay

Compound	IC50 (read-out: IC50)	IC50 (read-out: pIC50 (converted))
COc1cc(OC)c(NC(=O)N2CCC3(CC2)Nc2cc(F)ccc2-n2cccc23)cc1Cl	4.17 µM	–
Cc1cc(CNC(=O)Nc2ccc3c(c2)OCCO3)c(C)n1-c1ccc(Cl)cc1	8.51 µM	–
O=C(Nc1cc(F)c2nc(N3CCOCC3)ccc2c1)C1CC1	1.17 µM	–
COc1cccc(NS(=O)(=O)c2ccc3c4c2CC(=O)N4CC(C)S3)c1 (stereo unspecified)	3.63 µM	–
COc1ccc(Cl)cc1N(C)C(=O)Nc1cn(C)c(=O)c2ccccc12	6.92 µM	–
Cc1ccc2oc(SCC(=O)Nc3ccc(S(=O)(=O)N4CCCC4)cc3)nc2n1	11.8 µM	–
Cn1cc(NC(=O)NCc2ccccn2)c2ccccc2c1=O	4.79 µM	–
O=C(Nc1ccc2c(c1)OCCO2)N1CCSc2ncccc21	2.75 µM	–
COc1cc(OC)c(NC(=O)NCCC2=CSC3CC(C)CCC23)cc1Cl (stereo unspecified)	7.08 µM	–
CCOc1ccc(C2CC(=O)N3CN(c4ccc(OCC)cc4)CSC3=C2C#N)cc1 (stereo unspecified)	10.5 µM	–
COc1ccc(OC)c(CNC(=O)Nc2cn(C)c(=O)c3ccccc23)c1	2.57 µM	–
COc1cc2c(cc1OC)C(C)N(C(=O)Nc1cn(CC(C)C)c(=O)c3ccccc13)CC2 (stereo unspecified)	3.02 µM	–
CNc1nc(Nc2ccc(OC)cc2)c2cnn(C)c2n1	13.8 µM	–
CCC1c2ccc(C)n2CCN1C(=O)Nc1cc(OC)ccc1OC (stereo unspecified)	6.31 µM	–
CC(C)Cn1cc(NC(=O)NCCN2CCC(C)CC2)c2ccccc2c1=O	3.8 µM	–
COc1ccc(Nc2nnc(-n3nc(C)cc3C)c3ccccc23)cc1OC	8.32 µM	–
CCNc1nc2[nH]c(=O)cc(O)c2s1	1.91 µM	–
COc1ccc(OC)c(NS(=O)(=O)c2cc(-c3cc(C)no3)ccc2C(C)C)c1	3.89 µM	–
CC(=O)Oc1cc2c(C(=O)NCC3CCCO3)c(C)oc2c2ccccc12 (stereo unspecified)	3.72 µM	–
CC(C)Cn1cc(NC(=O)Nc2ccc(F)cc2Cl)c2ccccc2c1=O	1.86 µM	–
CC1CC(C)CN(CCCNC(=O)Nc2cn(C)c(=O)c3ccccc23)C1 (stereo unspecified)	10.7 µM	–
Cn1c(=O)oc2cc(S(=O)(=O)N3CCC4(CC3)Nc3cc(F)ccc3-n3cccc34)ccc21	8.51 µM	–
C=CCNc1nc(Nc2ccc(OC)cc2)c2cnn(C)c2n1	1.62 µM	–

Compound	IC50 (read-out: IC50)	IC50 (read-out: pIC50 (converted))
CC(C)Cn1cc(NC(=O)NC2CCCC2)c2ccccc2c1=O	2.24 µM	–
CCCCCC(C)n1nc(O)c2c(C)cc(=O)[nH]c21 (stereo unspecified)	7.08 µM	–
Cc1c(C(=O)NCCCN2CCOCC2)oc2c1-c1[nH]ncc1CC2	4.17 µM	–
Cn1cc(NC(=O)NCC2CCCO2)c2ccccc2c1=O (stereo unspecified)	4.47 µM	–
COC(=O)Cn1cc2c(n1)-c1c(oc(C(=O)N3CCCC3)c1C)CC2	6.03 µM	–
CC(C)Cn1cc(NC(=O)Nc2ccccn2)c2ccccc2c1=O	3.31 µM	–
O=C(Nc1ccc2c(c1)OCCO2)N1Cc2ccccc2Oc2ncccc21	3.09 µM	–
CCOC(=O)C1CCN(c2cc(C(=O)O)c3cc(N)ccc3n2)CC1	6.46 µM	–
O=C(O)CCc1nc(-c2ccccc2)c(-c2ccccc2)o1 [OXAPROZIN]	–	1.95 µM
O=C(Nc1cccc2c1CCCC2)N1CCSc2ncccc21	2.34 µM	–
Cc1ccc(-c2cc(Nc3cccc4cccnc34)nc(C)n2)cc1	1.51 µM	–
Cc1cccc(NC(=O)Nc2cn(CC(C)C)c(=O)c3ccccc23)n1	2.57 µM	–
COc1ccc(Nc2nc(NCCO)nc3c2cnn3C)cc1	1.86 µM	–
CC(=O)Nc1ncc2c(n1)CC(c1ccco1)CC2=O (stereo unspecified)	4.57 µM	–
COc1ccc(NC(=O)N2CCSc3ccccc32)cc1OC	7.08 µM	–
CCOc1ccc2nc(NC(=O)CSc3nc4ncccc4o3)sc2c1	4.37 µM	–
CC(C)Cn1cc(NC(=O)N(Cc2ccco2)C2CCCCC2C)c2ccccc2c1=O (stereo unspecified)	6.31 µM	–
CCCCC(=O)Nc1cc(F)c2nc(N3CCOCC3)ccc2c1	1.58 µM	–
CCOC(=O)c1nc(Nc2cc(OC)ccc2OC)c2ccccc2n1	14.1 µM	–
CC(C)Cn1cc(NC(=O)NC(C)c2ccccc2)c2ccccc2c1=O (stereo unspecified)	2.75 µM	–
CC(C)Cn1cc(NC(=O)Nc2ccccc2)c2ccccc2c1=O	2.4 µM	–
CC(C)Cn1cc(NC(=O)NCC2CCN(CCc3cccs3)CC2)c2ccccc2c1=O	3.24 µM	–
O=C(Cc1cccs1)Nc1cc(F)c2nc(N3CCOCC3)ccc2c1	4.79 µM	–

Compound	IC50 (read-out: IC50)	IC50 (read-out: pIC50 (converted))
COc1cc(OC)c(NC(=O)Nc2cn(CC(C)C)c(=O)c3ccccc23)cc1Cl	2.95 µM	–
COc1cc(OC)c(NC(=O)N2CCN3CCCCC3C2)cc1Cl (stereo unspecified)	2.69 µM	–
O=C(CSc1nc2ncccc2o1)Nc1ccc(S(=O)(=O)N2CCOCC2)cc1	2.63 µM	–
CCOC(=O)C1CCCN(C(=O)Nc2cn(C)c(=O)c3ccccc23)C1 (stereo unspecified)	6.46 µM	–
COc1ccc(Cl)cc1NC(=O)N1CC2CCCN2c2ccccc21 (stereo unspecified)	2 µM	–
CC(C)Cn1cc(NC(=O)Nc2cccc(F)c2)c2ccccc2c1=O	2.24 µM	–
COc1cc(OC)c(NC(=O)NCCc2csc(C)c2C)cc1Cl	4.57 µM	–
O=C(Nc1ccc(Br)cc1F)N1CCSc2ncccc21	7.59 µM	–
CC1=NC2c3c(oc(C(=O)NC4CCCC4)c3C)CCC2S1 (stereo unspecified)	4.37 µM	–
Cc1cc2nc(CSc3nc4ccc(NC(=O)CCC5CCCC5)cc4s3)cc(=O)n2o1	9.55 µM	–
CC(C)Cn1cc(NC(=O)NCCN2CCN(C)CC2)c2ccccc2c1=O	2.45 µM	–
COc1ccc(OC)c(Nc2c(-c3cc(C)c(C)cc3C)c(=O)c2=O)c1	10 µM	–
Cc1c(C(=O)N2CCOCC2)oc2c1-c1nn(CC(=O)NC3CCCCC3C)cc1CC2 (stereo unspecified)	3.16 µM	–
CC(C)Cn1cc(NC(=O)N2CCCc3ccccc32)c2ccccc2c1=O	3.02 µM	–
COc1ccc(Nc2nnc(-n3nc(C)cc3C)c3ccccc23)c(OC)c1	3.47 µM	–
COc1cc(NC(=O)n2ncc3cc(Cl)ccc32)cc(OC)c1	11.8 µM	–
CCCCN1CCS(=O)(=O)c2c(Cl)c(N3CCOCC3)nc(Oc3ccc(F)cc3)c21	4.57 µM	–
CC(C)Cn1cc(NC(=O)NCCN2CCCCC2)c2ccccc2c1=O	1.74 µM	–
Cc1c(C(=O)NCCN2CCOCC2)oc2c1-c1[nH]ncc1CC2	3.55 µM	–
CC(C)Cn1cc(NC(=O)NCCc2ccsc2)c2ccccc2c1=O	1.66 µM	–
Cc1nn(C)c(C)c1CNC(=O)Nc1ccc2c(c1)OCCO2	4.07 µM	–
COc1ccc(NS(=O)(=O)c2cc(Br)cnc2N)cc1OC	7.76 µM	–
O=C1CN(C(=O)COc2cccc3ccccc23)c2ccccc2N1	2.34 µM	–

Compound	IC50 (read-out: IC50)	IC50 (read-out: pIC50 (converted))
CC(C)Cn1cc(NC(=O)N2CCC(C(N)=O)(N3CCCCC3)CC2)c2ccccc2c1=O	2.51 µM	–
COc1cc(NC(=O)N2CCSc3ncccc32)cc(OC)c1	2.57 µM	–
CCOc1ccc(NS(=O)(=O)c2ccc3c4c2CC(=O)N4CC(C)S3)cc1 (stereo unspecified)	5.01 µM	–
O=C(Nc1cc(F)c2nc(N3CCOCC3)ccc2c1)C1CCC1	1.55 µM	–
O=c1c(Nc2cccc3c2CCCC3)c(-c2ccc(Cl)cc2)c1=O	5.25 µM	–
COc1ccc(NC(=O)n2ncc3cc(Cl)ccc32)cc1OC	9.77 µM	–
CC(=O)N1CCc2c(c(=O)[nH]c3onc(C)c23)C1	1.41 µM	–
O=C1CN(S(=O)(=O)c2ccc3[nH]c4c(c3c2)CCCC4)c2ccccc2N1	6.76 µM	–
Cn1cc(NC(=O)N2CCCCC2)c2ccccc2c1=O	9.33 µM	–
CCC(CC)n1nc(O)c2c(C)cc(=O)[nH]c21	7.41 µM	–
COc1ccc(Nc2nnc(Cc3ccncc3)c3ccccc23)c(OC)c1	3.89 µM	–
COc1cc(OC)c(N(C)C(=O)Nc2cn(C)c(=O)c3ccccc23)cc1Cl	3.72 µM	–
CC(C)NC(=O)N1CCC2(CC1)Nc1cc(F)ccc1-n1cccc12	9.77 µM	–
CC(=O)Oc1cc2c(C(=O)N3CCN(c4ccccc4)CC3)c(C)oc2c2ccccc12	2.88 µM	–
CCC(=O)Nc1cc(F)c2nc(N3CCOCC3)ccc2c1	1.55 µM	–
COc1cccc(C2CC(=O)N3CN(c4ccc(OC)cc4OC)CSC3=C2C#N)c1 (stereo unspecified)	4.37 µM	–
CCN(CC)S(=O)(=O)c1ccc(NC(=O)Nc2cn(CC(C)C)c(=O)c3ccccc23)cc1	3.72 µM	–
O=C(Nc1ccc2c(c1)OCCO2)N1CCc2c([nH]c3ccccc23)C1c1ccccc1F (stereo unspecified)	4.79 µM	–
COc1ccc(NC(=O)N2CCC3(CC2)Nc2ccccc2-n2cccc23)c(OC)c1	3.47 µM	–
COc1cc(NC(=O)C2CCC2)cc2sc(NS(=O)(=O)c3ccccc3)nc12	8.13 µM	–
Cc1csc(NC(=O)Nc2cn(CC(C)C)c(=O)c3ccccc23)n1	3.47 µM	–
CNc1nc2[nH]c(=O)cc(O)c2s1	2.51 µM	–
